# From PubChem BioAssay AID2060897 (Molecular Pharmacology Branch, DTP, NCI, 2025)
# System: 966289-007-R4-J1-PDC complex spheroid viability
# Assay: Anticancer human tumor 966289-007-R4-J1-PDC patient-derived pancreatic adenocarcinoma cell line growth inhibition [RAS]
# Conditions: for IC50: curve of first compound; for viability, T/C: stronger effect = lower value
# How it was run: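 Tumour cells grown as complex spheroids with HUVEC endothelial cells and mesenchymal stem cells, treated with RAS pathway inhibitor combinations. Each agent spans half-log steps from near clinical Cmax, or 10 microM where Cmax is unknown.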
# [1] = second compound 0.00316 µM, first compound 0.0316 µM
# [2] = second compound 0.00316 µM, first compound 0.1 µM
# [3] = second compound 0.00316 µM, first compound 0.316 µM
# [4] = second compound 0.00316 µM, first compound 1 µM
# [5] = second compound 0.00316 µM, first compound 3.16 µM
# [6] = second compound 0.00316 µM, first compound 10 µM
# [7] = second compound 0.01 µM, first compound 0.0316 µM
# [8] = second compound 0.01 µM, first compound 0.1 µM
# [9] = second compound 0.01 µM, first compound 0.316 µM
# [10] = second compound 0.01 µM, first compound 1 µM
# [11] = second compound 0.01 µM, first compound 3.16 µM
# [12] = second compound 0.01 µM, first compound 10 µM
# [13] = second compound 0.0316 µM, first compound 0.0316 µM
# [14] = second compound 0.0316 µM, first compound 0.1 µM
# [15] = second compound 0.0316 µM, first compound 0.316 µM
# [16] = second compound 0.0316 µM, first compound 1 µM
# [17] = second compound 0.0316 µM, first compound 3.16 µM
# [18] = second compound 0.0316 µM, first compound 10 µM
# [19] = second compound 0.1 µM, first compound 0.0316 µM
# [20] = second compound 0.1 µM, first compound 0.1 µM
# [21] = second compound 0.1 µM, first compound 0.316 µM
# [22] = second compound 0.1 µM, first compound 1 µM
# [23] = second compound 0.1 µM, first compound 3.16 µM
# [24] = second compound 0.1 µM, first compound 10 µM
# [25] = second compound 0.316 µM, first compound 0.0316 µM
# [26] = second compound 0.316 µM, first compound 0.1 µM
# [27] = second compound 0.316 µM, first compound 0.316 µM
# [28] = second compound 0.316 µM, first compound 1 µM
# [29] = second compound 0.316 µM, first compound 3.16 µM
# [30] = second compound 0.316 µM, first compound 10 µM
# [31] = second compound 1 µM, first compound 0.0316 µM
# [32] = second compound 1 µM, first compound 0.1 µM
# [33] = second compound 1 µM, first compound 0.316 µM
# [34] = second compound 1 µM, first compound 1 µM
# [35] = second compound 1 µM, first compound 3.16 µM
# [36] = second compound 1 µM, first compound 10 µM
# 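Also: spheroids exposed to agents for one week before readout.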
# 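For viability, T/C in this document: percent viability relative to DMSO vehicle control wells as 100%.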
smiles,measurement,setting,value
CC1(O)CCCC1n1c(=O)c(C(F)F)cc2cnc(NC3CCN(S(C)(=O)=O)CC3)nc21 (stereo unspecified) + C=CC(=O)N1CCN(c2nc(OCC3CCCN3C)nc3c(F)c(-c4nc(N)cc(C)c4C(F)(F)F)c(Cl)cc23)C(C)C1,IC50,second compound 0.00316 µM,133 nM
same,IC50,second compound 0.01 µM,151 nM
same,IC50,second compound 0.0316 µM,171 nM
same,IC50,second compound 0.1 µM,156 nM
same,IC50,second compound 0.316 µM,154 nM
same,IC50,second compound 1 µM,125 nM
same,"viability, T/C",[1],130%
same,"viability, T/C",[2],56.8%
same,"viability, T/C",[3],25%
same,"viability, T/C",[4],27%
same,"viability, T/C",[5],29.8%
same,"viability, T/C",[6],3.73%
same,"viability, T/C",[7],138%
same,"viability, T/C",[8],66.5%
same,"viability, T/C",[9],21.4%
same,"viability, T/C",[10],28.2%
same,"viability, T/C",[11],26.4%
same,"viability, T/C",[12],3.99%
same,"viability, T/C",[13],129%
same,"viability, T/C",[14],66.3%
same,"viability, T/C",[15],26.9%
same,"viability, T/C",[16],24.9%
same,"viability, T/C",[17],26.2%
same,"viability, T/C",[18],3.83%
same,"viability, T/C",[19],121%
same,"viability, T/C",[20],60%
same,"viability, T/C",[21],28.8%
same,"viability, T/C",[22],27.8%
same,"viability, T/C",[23],27.9%
same,"viability, T/C",[24],3.1%
same,"viability, T/C",[25],117%
same,"viability, T/C",[26],61.9%
same,"viability, T/C",[27],25.1%
same,"viability, T/C",[28],27.7%
same,"viability, T/C",[29],23.1%
same,"viability, T/C",[30],3.69%
same,"viability, T/C",[31],123%
same,"viability, T/C",[32],56.8%
same,"viability, T/C",[33],21.2%
same,"viability, T/C",[34],24%
same,"viability, T/C",[35],22.8%
same,"viability, T/C",[36],3.51%
CCN1CCN(Cc2ccc(Nc3ncc(F)c(-c4cc(F)c5nc(C)n(C(C)C)c5c4)n3)nc2)CC1 + C=CC(=O)N1CCN(c2nc(OCC3CCCN3C)nc3c(F)c(-c4nc(N)cc(C)c4C(F)(F)F)c(Cl)cc23)C(C)C1,IC50,second compound 0.00316 µM,> 1000 nM
same,IC50,second compound 0.01 µM,> 1000 nM
same,IC50,second compound 0.0316 µM,> 1000 nM
same,IC50,second compound 0.1 µM,> 1000 nM
same,IC50,second compound 0.316 µM,> 1000 nM
same,IC50,second compound 1 µM,> 1000 nM
same,"viability, T/C","second compound 0.00316 µM, first compound 0.00316 µM",109%
same,"viability, T/C","second compound 0.00316 µM, first compound 0.01 µM",110%
same,"viability, T/C",[1],101%
same,"viability, T/C",[2],95.8%
same,"viability, T/C",[3],83.5%
same,"viability, T/C",[4],76.2%
same,"viability, T/C","second compound 0.01 µM, first compound 0.00316 µM",96%
same,"viability, T/C","second compound 0.01 µM, first compound 0.01 µM",110%
same,"viability, T/C",[7],120%
same,"viability, T/C",[8],107%
same,"viability, T/C",[9],99.1%
same,"viability, T/C",[10],72.6%
same,"viability, T/C","second compound 0.0316 µM, first compound 0.00316 µM",116%
same,"viability, T/C","second compound 0.0316 µM, first compound 0.01 µM",126%
same,"viability, T/C",[13],106%
same,"viability, T/C",[14],113%
same,"viability, T/C",[15],84.8%
same,"viability, T/C",[16],72.8%
same,"viability, T/C","second compound 0.1 µM, first compound 0.00316 µM",107%
same,"viability, T/C","second compound 0.1 µM, first compound 0.01 µM",121%
same,"viability, T/C",[19],121%
same,"viability, T/C",[20],109%
same,"viability, T/C",[21],78.8%
same,"viability, T/C",[22],78.7%
same,"viability, T/C","second compound 0.316 µM, first compound 0.00316 µM",106%
same,"viability, T/C","second compound 0.316 µM, first compound 0.01 µM",103%
same,"viability, T/C",[25],120%
same,"viability, T/C",[26],105%
same,"viability, T/C",[27],89.4%
same,"viability, T/C",[28],73.4%
same,"viability, T/C","second compound 1 µM, first compound 0.00316 µM",98.5%
same,"viability, T/C","second compound 1 µM, first compound 0.01 µM",98.6%
same,"viability, T/C",[31],120%
same,"viability, T/C",[32],102%
same,"viability, T/C",[33],79%
same,"viability, T/C",[34],77.2%
C[C@@H](NC(=O)c1ncnc(N)c1Cl)c1ncc(C(=O)Nc2cc(C(F)(F)F)c(Cl)cn2)s1 + C=CC(=O)N1CCN(c2nc(OCC3CCCN3C)nc3c(F)c(-c4nc(N)cc(C)c4C(F)(F)F)c(Cl)cc23)C(C)C1,IC50,second compound 0.00316 µM,> 10000 nM
same,IC50,second compound 0.01 µM,> 10000 nM
same,IC50,second compound 0.0316 µM,> 10000 nM
same,IC50,second compound 0.1 µM,> 10000 nM
same,IC50,second compound 0.316 µM,> 10000 nM
same,IC50,second compound 1 µM,> 10000 nM
same,"viability, T/C",[1],123%
same,"viability, T/C",[2],117%
same,"viability, T/C",[3],115%
same,"viability, T/C",[4],119%
same,"viability, T/C",[5],128%
same,"viability, T/C",[6],76.2%
same,"viability, T/C",[7],112%
same,"viability, T/C",[8],116%
same,"viability, T/C",[9],122%
same,"viability, T/C",[10],109%
same,"viability, T/C",[11],119%
same,"viability, T/C",[12],100%
same,"viability, T/C",[13],120%
same,"viability, T/C",[14],113%
same,"viability, T/C",[15],118%
same,"viability, T/C",[16],128%
same,"viability, T/C",[17],127%
same,"viability, T/C",[18],86.2%
same,"viability, T/C",[19],116%
same,"viability, T/C",[20],119%
same,"viability, T/C",[21],123%
same,"viability, T/C",[22],123%
same,"viability, T/C",[23],116%
same,"viability, T/C",[24],111%
same,"viability, T/C",[25],115%
same,"viability, T/C",[26],107%
same,"viability, T/C",[27],130%
same,"viability, T/C",[28],125%
same,"viability, T/C",[29],116%
same,"viability, T/C",[30],118%
same,"viability, T/C",[31],101%
same,"viability, T/C",[32],103%
same,"viability, T/C",[33],120%
same,"viability, T/C",[34],128%
same,"viability, T/C",[35],134%
same,"viability, T/C",[36],94.1%
